Data taken from patent publication US20240016804A1, “METHODS AND MATERIALS FOR ASSESSING AND TREATING HYPERTENSIVE DISORDERS” (Mayo Foundation for Medical Education and Research, priority 2019, published 2024).

System: PE-MSC
Test: Apoptosis assay for MSC (Annexin V, IncuCyte S3, Red Object Count), PE-MSC
Assay type: cell-based, human
Details: dose response 1, 2, 5 and 10 μM, 24 hours
Experimental: MSC isolation from adipose tissue: Abdominal fat tissue (3-5 g) obtained during C-section was cultured at 37° C./5% CO2 in Advanced MEM media supplemented with 5% platelet lysate (PLTmax, Mill Creek Life Sciences, Rochester, MN), which provides a robust growth medium. The third passage of cells was used for phenotype/function analysis. MSC were positive to CD90, CD44, and CD105, negative to CD34, CD31, and CD45 by Flow Cytometry (FlowSight™, Amnis, Seattle, WA), and were able to transdifferentiate into adipocytes, chondrocytes, and osteocytes. For studies in non-pregnant subjects, MSC were isolated from three healthy kidney donors at time of kidney donation.
Apoptosis was assessed by Annexin V reagent (Essen Bioscience) using the IncuCyte S3 Live-Cell Analysis System (Essen Bioscience).
The initial dose response experiments were performed to determine the optimal Dasatinib concentration using the apoptotic assay and IncuCyte S3 Live-Cell Analysis System (Essen Bioscience). Approximately 1×10^6 MSC (PE and NP) in passage #4, were treated with the senolytic drug, Dasatinib at concentrations of 1, 2, 5 and 10 μM (dissolved in 0.1% DMSO) for 24 hours. Three groups were analyzed: 1) cells incubated in media, 2) vehicle: cells treated with 0.1% DMSO, 3) cells treated with Dasatinib. […] Annexin V, added at the beginning of the treatment, labeled apoptotic cells yielding red fluorescence. […]

Q: Which “Optimal concentration (from ratios of apoptotic cells)” value does the source give for `Cc1nc(Nc2ncc(C(=O)Nc3c(C)cccc3Cl)s2)cc(N2CCN(CCO)CC2)n1` [Dasatinib] here?
A: 1 µM
